Reference: publication PMC9631409 (ACS Omega, 2022)

Each molecule was assayed against T1, FmtA^Δ80 (Staphylococcus aureus, UniProt O50608) (assay: isothermal titration calorimetry, one-site model).
T1 sequence (O50608 81-397): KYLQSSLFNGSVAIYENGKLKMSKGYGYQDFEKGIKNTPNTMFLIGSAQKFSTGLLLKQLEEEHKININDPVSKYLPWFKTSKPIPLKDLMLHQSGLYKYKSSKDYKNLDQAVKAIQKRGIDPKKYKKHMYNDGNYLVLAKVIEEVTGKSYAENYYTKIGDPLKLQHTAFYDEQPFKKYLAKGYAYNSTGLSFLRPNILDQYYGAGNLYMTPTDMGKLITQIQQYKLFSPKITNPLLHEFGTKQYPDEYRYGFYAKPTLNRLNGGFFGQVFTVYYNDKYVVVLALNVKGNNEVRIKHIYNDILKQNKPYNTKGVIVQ
Format: binding

| Kd [µM] | Structure (SMILES) |
| --- | --- |
| 25.8 | NC[C@H]1O[C@H](O[C@H]2[C@H](O)[C@@H](O[C@H]3O[C@H](CO)[C@@H](O)[C@H](N)[C@H]3O)[C@H](N)C[C@@H]2N)[C@H](N)C[C@@H]1O [tobramycin] |
| 1.7 | CO/N=C1\CN(c2nc3c(cc2F)c(=O)c(C(=O)O)cn3C2CC2)CC1CN (stereo not shown) [gemifloxacin] |
| 11.1 | [H]/N=C(/N)N[C@H]1[C@H](O)[C@@H](O)[C@H](O[C@@H]2O[C@@H](C)[C@](O)(C=O)[C@H]2O[C@@H]2O[C@@H](CO)[C@H](O)[C@@H](O)[C@@H]2NC)[C@@H](N/C(N)=N\[H])[C@@H]1O [streptomycin] |
| 8.56 | NC[C@@H]1O[C@H](O[C@H]2[C@@H](O)[C@H](O[C@@H]3[C@@H](O)[C@H](N)C[C@H](N)[C@H]3O[C@H]3O[C@H](CO)[C@@H](O)[C@H](O)[C@H]3N)O[C@@H]2CO)[C@H](N)[C@@H](O)[C@@H]1O [paromomycin] |
